The results in this text go back to ChEMBL document CHEMBL2401651, “Discovery of novel P2 substituted 4-biaryl proline inhibitors of hepatitis C virus NS3 serine protease” (Bioorg Med Chem Lett, 2013).

In series [1] the test system is Hepatitis C virus. Description: Antiviral activity against Hepatitis C virus infected in human […] cells after 72 hrs by luciferase reporter gene assay. It counts as functional, organism-based, Hepacivirus hominis. Background: Reporter assays use an easily measured gene product as a stand-in for the process of interest.
A short description of series [2]: Inhibition of Hepatitis C virus genotype 1 NS3 protease.
Series [3] is described as follows: Permeability of the compound in human Caco2 cells. It counts as ADME, cell-based. As to conditions: Caco-2, read-out: permeability.
Series [4] is described as follows: Half life in human liver microsomes. It counts as ADME, Microsome.

Structures are written as SMILES. pEC50, pIC50, pKi: −log10 of the molar value.

Usually pEC50 stands for the EC50 on a negative log10 scale, so that one unit is a factor of ten. High values mean a small EC50, low ones a large EC50. A word on the pIC50: it is the IC50 on a negative log10 scale, so that one unit is a factor of ten. A higher pIC50 goes with a small IC50. The compound `C=C[C@@H]1C[C@]1(NC(=O)[C@@H]1C[C@@H](c2csc(-c3cc(C)ccc3OC)n2)CN1C(=O)[C@@H](NC(=O)OC1CCCC1)C(C)(C)C)C(=O)NS(=O)(=O)C1CC1` gave a pEC50 in series [1] of 7.57. Also, in series [2], the negative-log IC50 (pIC50) was 8.77.

Compound `C=C[C@@H]1C[C@]1(NC(=O)[C@@H]1C[C@@H](c2csc(-c3ccccc3OC)n2)CN1C(=O)[C@@H](NC(=O)OC1CCCC1)C(C)(C)C)C(=O)NS(=O)(=O)C1CC1` gave a negative-log EC50 (pEC50) in series [1] of 7.46. Also, the pIC50 in series [2] is 9.13.

Usually half-life stands for the time needed for the level to fall by half in the phase considered. The low end stands for rapid decline, the high end for slow decline. The compound `C=C[C@@H]1C[C@]1(NC(=O)[C@@H]1C[C@@H](n2cc(-c3ccccc3)nn2)CN1C(=O)[C@@H](NC(=O)OC1CCCC1)C(C)(C)C)C(=O)NS(=O)(=O)C1CC1` had a pEC50 in series [1] of 6.37. Further, the Papp in series [3] amounted to 1.1 ×10⁻⁶ cm/s. In series [2], the negative-log IC50 (pIC50) was 8.57. The compound further gave a half-life in series [4] of 1.57 h.

`C=C[C@@H]1C[C@]1(NC(=O)[C@@H]1C[C@@H](c2csc(-c3cccc(OC)c3)n2)CN1C(=O)[C@@H](NC(=O)OC1CCCC1)C(C)(C)C)C(=O)NS(=O)(=O)C1CC1` gave a pEC50 in series [1] of 6.85. In series [2], the negative logarithm of the IC50 (pIC50) was 8.47.

In series [1], `C=C[C@@H]1C[C@]1(NC(=O)[C@@H]1C[C@@H](c2nc(-c3ccccc3)cs2)CN1C(=O)[C@@H](NC(=O)OC1CCCC1)C(C)(C)C)C(=O)NS(=O)(=O)C1CC1` showed a pEC50 of 6.24. Moreover, the Papp in series [3] was found to be 4.4 ×10⁻⁶ cm/s. In series [2], this compound gave a pIC50 of 8.49. This compound returned a half-life in series [4] of 2.38 h.

Consider `C=C[C@@H]1C[C@]1(NC(=O)[C@@H]1C[C@@H](n2cc(-c3ccccc3)c(C)n2)CN1C(=O)[C@@H](NC(=O)OC1CCCC1)C(C)(C)C)C(=O)NS(=O)(=O)C1CC1`, for which the negative-log EC50 (pEC50) in series [1] is 6.49. In addition, the Papp in series [3] is 0.7 ×10⁻⁶ cm/s. In addition, in series [2], the pIC50 was 8.60. The compound further yielded a half-life in series [4] of 0.1 h.

Regarding `C=C[C@@H]1C[C@]1(NC(=O)[C@@H]1C[C@@H](c2csc(-c3ccc(OC)cc3OC)n2)CN1C(=O)[C@@H](NC(=O)OC1CCCC1)C(C)(C)C)C(=O)NS(=O)(=O)C1CC1`, in series [1], the negative logarithm of the EC50 (pEC50) is 7.05. Further, the negative-log IC50 (pIC50) in series [2] was 8.66.

Regarding `C=C[C@@H]1C[C@]1(NC(=O)[C@@H]1C[C@@H](c2csc(-c3ccccc3F)n2)CN1C(=O)[C@@H](NC(=O)OC1CCCC1)C(C)(C)C)C(=O)NS(=O)(=O)C1CC1`, the negative logarithm of the EC50 (pEC50) in series [1] was 6.63. The pIC50 in series [2] is 8.74.

On to `C=C[C@@H]1C[C@]1(NC(=O)[C@@H]1C[C@@H](c2csc(-c3ccccc3OCC)n2)CN1C(=O)[C@@H](NC(=O)OC1CCCC1)C(C)(C)C)C(=O)NS(=O)(=O)C1CC1`, for which the negative-log EC50 (pEC50) in series [1] is 7.43. The same compound showed a negative-log IC50 (pIC50) in series [2] of 9.11.

One may read the pKi as the Ki on a negative log10 scale, so that one unit is a factor of ten. Lower therefore signals a high Ki. Take `C=C[C@@H]1C[C@]1(NC(=O)[C@@H]1C[C@@H](c2csc(-c3cc(OC)ccc3OC)n2)CN1C(=O)[C@@H](NC(=O)OC1CCCC1)C(C)(C)C)C(=O)NS(=O)(=O)C1CC1`: the pEC50 in series [1] was 7.80. Besides, in series [3], the Papp was found to be 7 ×10⁻⁶ cm/s. Moreover, in series [2], the pIC50 is 9.05 and the pKi is 9.64. In series [4], the half-life turned out to be 1.15 h.

For the compound `C=C[C@@H]1C[C@]1(NC(=O)[C@@H]1C[C@@H](c2csc(-c3ccc(OC)cc3)n2)CN1C(=O)[C@@H](NC(=O)OC1CCCC1)C(C)(C)C)C(=O)NS(=O)(=O)C1CC1`, the pEC50 in series [1] was 6.28. In series [2], this compound gave a negative-log IC50 (pIC50) of 8.28.

On to `C=C[C@@H]1C[C@]1(NC(=O)[C@@H]1C[C@@H](c2csc(-c3c(OC)cccc3OC)n2)CN1C(=O)[C@@H](NC(=O)OC1CCCC1)C(C)(C)C)C(=O)NS(=O)(=O)C1CC1`, for which the pEC50 in series [1] is 5.66. This compound gave a negative logarithm of the IC50 (pIC50) in series [2] of 7.77.

`C=C[C@@H]1C[C@]1(NC(=O)[C@@H]1C[C@@H](n2cnc(-c3ccccc3)c2)CN1C(=O)[C@@H](NC(=O)OC1CCCC1)C(C)(C)C)C(=O)NS(=O)(=O)C1CC1`: the pEC50 in series [1] was 5.87. The Papp in series [3] came to 0.2 ×10⁻⁶ cm/s. The negative logarithm of the IC50 (pIC50) in series [2] was 8.74. The same compound gave a half-life in series [4] of 3.68 h.

In series [1], `C=C[C@@H]1C[C@]1(NC(=O)[C@@H]1C[C@@H](c2csc(-c3cccc(OC)c3OC)n2)CN1C(=O)[C@@H](NC(=O)OC1CCCC1)C(C)(C)C)C(=O)NS(=O)(=O)C1CC1` had a negative logarithm of the EC50 (pEC50) of 6.62. In addition, the pIC50 in series [2] was 8.39.

For the compound `C=C[C@@H]1C[C@]1(NC(=O)[C@@H]1C[C@@H](c2csc(-c3ccccc3)n2)CN1C(=O)[C@@H](NC(=O)OC1CCCC1)C(C)(C)C)C(=O)NS(=O)(=O)C1CC1`, the pEC50 in series [1] is 6.76. In addition, the Papp in series [3] stood at 4.6 ×10⁻⁶ cm/s. Moreover, the pIC50 in series [2] is 8.57. Moreover, in series [4], the half-life is 2.25 h.

`C=C[C@@H]1C[C@]1(NC(=O)[C@@H]1C[C@@H](c2csc(-c3cc(F)ccc3OC)n2)CN1C(=O)[C@@H](NC(=O)OC1CCCC1)C(C)(C)C)C(=O)NS(=O)(=O)C1CC1` gave a negative-log EC50 (pEC50) in series [1] of 7.55. This compound also showed a pIC50 in series [2] of 8.96.

In the case of `C=C[C@@H]1C[C@]1(NC(=O)[C@@H]1C[C@@H](c2csc(-c3ccccc3C)n2)CN1C(=O)[C@@H](NC(=O)OC1CCCC1)C(C)(C)C)C(=O)NS(=O)(=O)C1CC1`, the pEC50 in series [1] is 6.10. In series [2], the pIC50 is 8.22.

In the case of `C=C[C@@H]1C[C@]1(NC(=O)[C@@H]1C[C@@H](c2csc(-c3cccnc3)n2)CN1C(=O)[C@@H](NC(=O)OC1CCCC1)C(C)(C)C)C(=O)NS(=O)(=O)C1CC1`, the pEC50 in series [1] was 6.04. For the same compound, in series [2], the negative-log IC50 (pIC50) was 7.92.

The compound `C=C[C@@H]1C[C@]1(NC(=O)[C@@H]1C[C@@H](c2csc(-c3cc(OC)ccc3OC)n2)CN1C(=O)[C@@H](NC(=O)OC1CCCC1)C(C)(C)C)C(=O)NS(=O)(=O)C1(C)CC1` showed a pEC50 in series [1] of 8.05. In addition, in series [3], the Papp was 12 ×10⁻⁶ cm/s. In addition, the negative-log IC50 (pIC50) in series [2] is 8.96. In series [4], this compound had a half-life of 0.95 h.
